Assay results from ChEMBL document CHEMBL3046727, “Antifungal and insect antifeedant 2-phenylethanol esters from the liverwort Balantiopsis cancellata from Chile” (J Agric Food Chem, 2005).
The source made the active and inactive calls. The rule behind the calls is not given here.

Experiments:
[1] = system: Cladosporium herbarum; experiment: Antifungal activity against Cladosporium herbarum assessed as growth inhibition at 23 degC measured after 72 hr; assay type: functional
[2] = system: Spodoptera littoralis; experiment: Feeding deterrence in Spodoptera littoralis in compound treated lettuce disk assessed as feeding ratio measured as area consumed of treated disks per area consumed of the control disk at 20 ug/disk by disk choice assay; assay type: functional
[3] = system: Artemia salina; experiment: Toxicity in Artemia salina (brine shrimp) measured after 24 hr; assay type: organism-based; conditions: in vivo
[4] = system: Cladosporium herbarum; experiment: Antifungal activity against Cladosporium herbarum assessed as growth inhibition at 0.006 mg/mL at 23 degC measured after 72 hr; assay type: functional, organism-based

Row | Compound | MIC [1] | Ratio [2] | LC50 [3] | growth inhibition (GI) [4]
1 | CC(=O)N1CCN(c2ccc(OCC3COC(Cn4ccnc4)(c4ccc(Cl)cc4Cl)O3)cc2)CC1 (configuration not stated) [KETOCONAZOLE] | 0.01 mg | – | – | –
2 | O=C(OCCc1ccccc1)c1ccccc1 [PHENETHYL BENZOATE] | 0.1 mg | 0.56 | < 2.5 ppm | –
3 | Cl[C@H]1[C@H](Cl)[C@@H](Cl)[C@@H](Cl)[C@H](Cl)[C@H]1Cl [LINDANE] | – | – | 7.2 ppm | –
4 | CS/C=C/C(=O)OCCc1ccccc1 [ISOTACHIN B] | 0.006 mg | 0.44 | < 2.5 ppm | Active
5 | O=C(/C=C\c1ccccc1)OCCc1ccccc1 | – | 0.5 | < 2.5 ppm | –
6 | O=C(/C=C/c1ccccc1)OCCc1ccccc1 [PHENETHYL CINNAMATE] | – | 0.96 | < 2.5 ppm | –
7 | O=C(OC[C@H](O)c1ccccc1)c1ccccc1 | 0.05 mg | 0.73 | 7.4 ppm | –
8 | O=C1C2CC=CCC2C(=O)N1SC(Cl)(Cl)Cl (configuration not stated) [CAPTAN] | 0.02 mg | – | – | –
